Data from US20090247559A1 (Exelixis, Inc., priority 2007, published 2009).
Read-outs that look alike come from different tables or passages of the source.

What was measured:
CDC7 = CDC7 (Homo sapiens, UniProt O00311); test: CDC7 inhibition, biochemical chemiluminescence assay (Kinase Glo, IC50 determination)
Procedure, shortened: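 CDC7 enzyme preincubated with compound 10 min at ambient temperature, then ATP mix in Tris Base added; reaction 90 min at 24-27 °C. Remaining ATP quantified by Kinase Glo luminescence to give IC50.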

[1] = molecular target: PIM (PIM-1, PIM-2, and/or PIM-3); test: PIM-1, PIM-2 and PIM-3 inhibition, biochemical chemiluminescence assays (Kinase Glo, IC50 determination); conditions: Table 1 activity class; PIM refers to PIM-1, PIM-2, and/or PIM-3; read-out: PIM IC50 (Activity B)
CK2 = CK2 (Homo sapiens, UniProt P68400); test: CK2 inhibition, biochemical chemiluminescence holoenzyme assay (Kinase Glo, IC50 determination); conditions: Table 1 activity class; symbol given only if active; read-out: CK2 IC50 (Activity C)
Procedure, shortened: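 Holoenzyme CK2 assay; compounds pre-incubated with substrate and enzyme, then reacted 150 min at 24-27° C. Remaining ATP measured as luminescence with Kinase Glo, and IC50 derived from the signal.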

[2] = Table 1 activity class, symbol given only if active, read-out: CDC7 IC50 (Activity A)
[3] = compounds in Table 1, read-out: CDC7 IC50 value

Chain of CDC7 (O00311 whole entry): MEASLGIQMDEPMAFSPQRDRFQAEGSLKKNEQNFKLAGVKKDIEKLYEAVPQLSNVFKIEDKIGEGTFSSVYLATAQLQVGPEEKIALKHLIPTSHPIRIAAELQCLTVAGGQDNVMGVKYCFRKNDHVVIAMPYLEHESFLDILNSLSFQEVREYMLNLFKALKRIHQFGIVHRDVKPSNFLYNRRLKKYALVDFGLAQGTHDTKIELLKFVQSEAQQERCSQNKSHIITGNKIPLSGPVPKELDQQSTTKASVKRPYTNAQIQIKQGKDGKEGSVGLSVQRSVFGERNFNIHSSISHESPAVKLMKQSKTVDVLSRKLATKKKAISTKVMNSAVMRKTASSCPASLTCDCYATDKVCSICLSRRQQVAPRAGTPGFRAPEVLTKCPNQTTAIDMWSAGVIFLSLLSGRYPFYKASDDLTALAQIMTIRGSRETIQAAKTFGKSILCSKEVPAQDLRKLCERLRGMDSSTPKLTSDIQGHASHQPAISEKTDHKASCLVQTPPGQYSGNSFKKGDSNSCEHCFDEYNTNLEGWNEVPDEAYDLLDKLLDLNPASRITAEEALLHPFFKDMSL
Chain of CDC7 (Q9UBU7 whole entry partner): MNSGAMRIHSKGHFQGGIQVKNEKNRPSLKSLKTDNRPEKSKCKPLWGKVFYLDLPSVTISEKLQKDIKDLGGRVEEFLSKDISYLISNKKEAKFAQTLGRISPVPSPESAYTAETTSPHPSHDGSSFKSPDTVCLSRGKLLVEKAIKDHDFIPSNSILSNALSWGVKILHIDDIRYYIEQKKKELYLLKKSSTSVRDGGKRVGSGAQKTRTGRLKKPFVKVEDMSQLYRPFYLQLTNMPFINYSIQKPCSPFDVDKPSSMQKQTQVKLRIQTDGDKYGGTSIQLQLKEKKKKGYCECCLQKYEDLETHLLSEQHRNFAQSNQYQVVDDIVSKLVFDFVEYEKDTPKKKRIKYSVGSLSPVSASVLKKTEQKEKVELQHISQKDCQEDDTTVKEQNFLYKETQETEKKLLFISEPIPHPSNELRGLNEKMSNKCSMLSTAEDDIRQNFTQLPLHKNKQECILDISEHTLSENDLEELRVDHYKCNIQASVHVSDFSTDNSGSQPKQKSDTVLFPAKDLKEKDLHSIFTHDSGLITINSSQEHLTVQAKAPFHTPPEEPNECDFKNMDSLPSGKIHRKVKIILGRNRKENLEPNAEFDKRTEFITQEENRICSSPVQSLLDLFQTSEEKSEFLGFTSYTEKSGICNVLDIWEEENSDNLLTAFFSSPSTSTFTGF
Chain of CK2 (P68400 whole entry): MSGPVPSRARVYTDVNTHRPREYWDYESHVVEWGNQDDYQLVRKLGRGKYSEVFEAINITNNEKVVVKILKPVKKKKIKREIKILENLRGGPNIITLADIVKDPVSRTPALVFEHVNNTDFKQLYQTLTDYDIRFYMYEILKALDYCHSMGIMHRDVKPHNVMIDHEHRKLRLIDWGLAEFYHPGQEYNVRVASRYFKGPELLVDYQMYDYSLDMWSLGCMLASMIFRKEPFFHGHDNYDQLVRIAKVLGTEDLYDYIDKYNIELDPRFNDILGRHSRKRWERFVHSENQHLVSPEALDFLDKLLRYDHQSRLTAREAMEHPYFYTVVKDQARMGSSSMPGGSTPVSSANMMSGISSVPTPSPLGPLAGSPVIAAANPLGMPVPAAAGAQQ
Chain of CK2 (P67870 whole entry partner): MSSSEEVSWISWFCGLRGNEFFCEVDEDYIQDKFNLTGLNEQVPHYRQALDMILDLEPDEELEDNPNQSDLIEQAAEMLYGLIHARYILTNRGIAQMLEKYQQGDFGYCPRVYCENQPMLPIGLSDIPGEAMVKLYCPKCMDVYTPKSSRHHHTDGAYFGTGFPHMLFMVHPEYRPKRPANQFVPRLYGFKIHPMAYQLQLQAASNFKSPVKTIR

Compound | IC50 (CDC7; [2]) [µM] | IC50 [1] [µM] | IC50 (CK2) [µM] | IC50 (CDC7; [3]) [µM]
O=c1[nH]c(CNCc2ccccc2Cl)nc2c1oc1ccc(Br)cc12 [Compound 235, 8-bromo-2-({[(2-chlorophenyl)methyl]amino}methyl)[1]benzofuro[3,2-d]pyrimidin-4(3H)-one] | < 10 | < 10 | < 10 | 
O=c1[nH]c(CN2CCC(O)CC2)nc2c1oc1ccc(Br)cc12 [Compound 242, 8-bromo-2-[(4-hydroxypiperidin-1-yl)methyl][1]benzofuro[3,2-d]pyrimidin-4(3H)-one] | < 10 | < 10 | < 10 | < 0.1
O=C(CCN1CCOCC1)Nc1ccc(-c2nc3c(oc4ccc(Br)cc43)c(=O)[nH]2)c(Cl)c1 [Compound 248, N-[4-(8-bromo-4-oxo-3,4-dihydro[1]benzofuro[3,2-d]pyrimidin-2-yl)-3-chlorophenyl]-3-morpholin-4-ylpropanamide] | < 10 | < 10 | < 10 | 
O=c1[nH]c(CNC2CCC2)nc2c1oc1ccc(Br)cc12 [Compound 252, 8-bromo-2-[(cyclobutylamino)methyl][1]benzofuro[3,2-d]pyrimidin-4(3H)-one] | < 10 | < 10 | < 10 | < 0.1
O=c1[nH]c(CNCCc2c[nH]cn2)nc2c1oc1ccc(Br)cc12 [Compound 259, 8-bromo-2-({[2-(1H-imidazol-4-yl)ethyl]amino}methyl)[1]benzofuro[3,2-d]pyrimidin-4(3H)-one] | < 10 | < 10 | < 10 | < 0.1
O=c1[nH]c(CNCC(O)CO)nc2c1oc1ccc(Br)cc12 (stereo not drawn) [Compound 262, 8-bromo-2-{[(2,3-dihydroxypropyl)amino]methyl}[1]benzofuro[3,2-d]pyrimidin-4(3H)-one] | < 10 | < 10 | < 10 | < 0.1
O=C(NCc1cccc(Cl)c1)C1CCN(Cc2nc3c(oc4ccc(Br)cc43)c(=O)[nH]2)C1 (stereo not drawn) [Compound 264, 1-[(8-bromo-4-oxo-3,4-dihydro[1]benzofuro[3,2-d]pyrimidin-2-yl)methyl]-N-[(3-chlorophenyl)methyl]pyrrolidine-3-carboxamide] | < 10 | < 10 | < 10 | 
CNc1cc(-c2nc3c(oc4ccc(Br)cc43)c(=O)[nH]2)c(Cl)cn1 [Compound 265, 8-bromo-2-[5-chloro-2-(methylamino)pyridin-4-yl][1]benzofuro[3,2-d]pyrimidin-4(3H)-one] | < 10 | < 10 | < 10 | 
CCOC(=O)C1CCN(Cc2nc3c(oc4ccc(Br)cc43)c(=O)[nH]2)C1 (stereo not drawn) [Compound 269, Ethyl 1-[(8-bromo-4-oxo-3,4-dihydro[1]benzofuro[3,2-d]pyrimidin-2-yl)methyl]pyrrolidine-3-carboxylate] | < 10 | < 10 | < 10 | < 0.1
NC(=O)C1CCN(Cc2nc3c(oc4ccc(Br)cc43)c(=O)[nH]2)C1 (stereo not drawn) [Compound 270, 1-[(8-bromo-4-oxo-3,4-dihydro[1]benzofuro[3,2-d]pyrimidin-2-yl)methyl]pyrrolidine-3-carboxamide] | < 10 | < 10 | < 10 | < 0.1
CN1CCCC1c1nc2c(oc3ccc(Br)cc32)c(=O)[nH]1 (stereo not drawn) [Compound 273, 8-Bromo-2-(1-methylpyrrolidin-2-yl)[1]benzofuro[3,2-d]pyrimidin-4(3H)-one] | < 10 | < 10 | < 10 | < 0.1
O=C(Nc1ccc(-c2nc3c(oc4ccc(Br)cc43)c(=O)[nH]2)c(Cl)c1)c1ccncc1Cl [Compound 275, N-[4-(8-bromo-4-oxo-3,4-dihydro[1]benzofuro[3,2-d]pyrimidin-2-yl)-3-chlorophenyl]-3-chloropyridine-4-carboxamide] | < 10 | < 10 | < 10 | 
O=C(Nc1ccc(-c2nc3c(oc4ccc(Br)cc43)c(=O)[nH]2)c(Cl)c1)c1ccnc(Cl)c1 [Compound 276, N-[4-(8-bromo-4-oxo-3,4-dihydro[1]benzofuro[3,2-d]pyrimidin-2-yl)-3-chlorophenyl]-2-chloropyridine-4-carboxamide] | < 10 | < 10 | < 10 | 
COCCNCc1nc2c(oc3ccc(Br)cc32)c(=O)[nH]1 [Compound 277, 8-bromo-2-({[2-(methyloxy)ethyl]amino}methyl)[1]benzofuro[3,2-d]pyrimidin-4(3H)-one] | < 10 | < 10 | < 10 | < 0.1
CN(C)CCNc1cc(-c2nc3c(oc4ccc(Br)cc43)c(=O)[nH]2)c(Cl)cn1 [Compound 283, 8-bromo-2-(5-chloro-2-{[2-(dimethylamino)ethyl]amino}pyridin-4-yl)[1]benzofuro[3,2-d]pyrimidin-4(3H)-one] | < 10 | < 10 | < 10 | 
O=c1[nH]c(CN2CCC(CO)C2)nc2c1oc1ccc(Br)cc12 (stereo not drawn) [Compound 287, 8-bromo-2-{[3-(hydroxymethyl)pyrrolidin-1-yl]methyl}[1]benzofuro[3,2-d]pyrimidin-4(3H)-one] | < 10 | < 10 | < 10 | < 0.1
CN1CCC(c2nc3c(oc4ccc(Br)cc43)c(=O)[nH]2)C1 (stereo not drawn) [Compound 289, 8-bromo-2-(1-methylpyrrolidin-3-yl)[1]benzofuro[3,2-d]pyrimidin-4(3H)-one] | < 10 | < 10 | < 10 | < 0.1
O=c1[nH]c(C2CCN(Cc3ccncc3)C2)nc2c1oc1ccc(Br)cc12 (stereo not drawn) [Compound 290, 8-bromo-2-[1-(pyridin-4-ylmethyl)pyrrolidin-3-yl][1]benzofuro[3,2-d]pyrimidin-4(3H)-one] | < 10 | < 10 | < 10 | 
Cc1ccc(C(=O)Nc2ccc(-c3nc4c(oc5ccc(Br)cc54)c(=O)[nH]3)c(Cl)c2)cn1 [Compound 291, N-[4-(8-bromo-4-oxo-3,4-dihydro[1]benzofuro[3,2-d]pyrimidin-2-yl)-3-chlorophenyl]-6-methylpyridine-3-carboxamide] | < 10 | < 10 | < 10 | 
O=C(Nc1ccc(-c2nc3c(oc4ccc(Br)cc43)c(=O)[nH]2)c(Cl)c1)c1ccccn1 [Compound 293, N-[4-(8-bromo-4-oxo-3,4-dihydro[1]benzofuro[3,2-d]pyrimidin-2-yl)-3-chlorophenyl]pyridine-2-carboxamide] | < 10 | < 10 | < 10 | 
O=C(Nc1ccc(-c2nc3c(oc4ccc(Br)cc43)c(=O)[nH]2)c(Cl)c1)c1cc(Cl)nc(Cl)c1 [Compound 294, N-[4-(8-bromo-4-oxo-3,4-dihydro[1]benzofuro[3,2-d]pyrimidin-2-yl)-3-chlorophenyl]-2,6-dichloropyridine-4-carboxamide] | < 10 | < 10 | < 10 | 
NCc1cccc(-c2nc3c(oc4ccc(Br)cc43)c(=O)[nH]2)c1 [Compound 302, 2-[3-(Aminomethyl)phenyl]-8-bromo[1]benzofuro[3,2-d]pyrimidin-4(3H)-one] | < 10 | < 10 | < 10 | 
O=c1[nH]c(C[C@@H]2CCCNC2)nc2c1oc1ccc(Br)cc12 [Compound 305, 8-bromo-2-[(3S)-piperidin-3-ylmethyl][1]benzofuro[3,2-d]pyrimidin-4(3H)-one] | < 10 | < 10 | < 10 | 
O=c1[nH]c(CN2CC[C@@H](F)C2)nc2c1oc1ccc(Br)cc12 [Compound 307, 8-bromo-2-{[(3R)-3-fluoropyrrolidin-1-yl]methyl}[1]benzofuro[3,2-d]pyrimidin-4(3H)-one] | < 10 | < 10 | < 10 | < 0.1
O=c1[nH]c(CN2CC[C@H](F)C2)nc2c1oc1ccc(Br)cc12 [Compound 308, 8-bromo-2-{[(3S)-3-fluoropyrrolidin-1-yl]methyl}[1]benzofuro[3,2-d]pyrimidin-4(3H)-one] | < 10 | < 10 | < 10 | < 0.1
O=c1[nH]c(CN2CCC3(CCNCC3)CC2)nc2c1oc1ccc(Br)cc12 [Compound 311, 8-bromo-2-(3,9-diazaspiro[5.5]undec-3-ylmethyl)[1]benzofuro[3,2-d]pyrimidin-4(3H)-one] | < 10 | < 10 | < 10 | 
Cc1cnc(C(=O)Nc2ccc(-c3nc4c(oc5ccc(Br)cc54)c(=O)[nH]3)c(Cl)c2)cn1 [Compound 312, N-[4-(8-bromo-4-oxo-3,4-dihydro[1]benzofuro[3,2-d]pyrimidin-2-yl)-3-chlorophenyl]-5-methylpyrazine-2-carboxamide] | < 10 | < 10 | < 10 | 
O=C(Nc1ccc(-c2nc3c(oc4ccc(Br)cc43)c(=O)[nH]2)c(Cl)c1)C1CCOC1 (stereo not drawn) [Compound 313, N-[4-(8-bromo-4-oxo-3,4-dihydro[1]benzofuro[3,2-d]pyrimidin-2-yl)-3-chlorophenyl]tetrahydrofuran-3-carboxamide] | < 10 | < 10 | < 10 | 
O=c1[nH]c(C[C@H]2CCCNC2)nc2c1oc1ccc(Br)cc12 [Compound 315, 8-bromo-2-[(3R)-piperidin-3-ylmethyl][1]benzofuro[3,2-d]pyrimidin-4(3H)-one] | < 10 | < 10 | < 10 | 
